37 compounds from US20050124562A1, “Bis-quinazoline compounds for the treatment of bacterial infections” (priority 2003, published 2005) can be followed below.

Structures are written as SMILES. Converted amounts (≈) assume the structure as drawn. Where two headings read alike, the source gives them in different places.

The subject of this assay is S. aureus, E. faecalis, S. pyogenes and S. pneumoniae. Briefly: Broth microdilution MIC (NCCLS), gram-positive strains. The format is cell-based. Here is the method: Representative bis-quinazolines were tested for antibacterial activity using the […] microdilution method to determine their minimum inhibitory concentrations (MICs). All compounds were tested using standard methods in accordance with NCCLS guidelines (National Committee for Clinical Laboratory Standards. 2003. Methods for dilution antimicrobial susceptibility testing for bacteria that grow aerobically. Approved Standard M-7 A-6, NCCLS, Wayne, Pa.). The bacterial strains used in the susceptibility tests were obtained from the American Type Culture Collection (ATCC) and included resistant phenotypes such as oxacillin-resistant S. aureus (ORSA) and vancomycin-resistant enterococci (VRE). The minimum bactericidal concentrations (MBCs) were determined for selected organisms. The effect of protein binding on the antibacterial activity of representative bis-quinazolines were determined by conducting MIC tests in the presence of human serum.
(In general: In broth dilution the organism is exposed to a series of concentrations in liquid medium.)

Where [1] appears, read: range against some strains of S. aureus, E. faecalis, S. pyogenes and S. pneumoniae, read-out: MIC.

For orientation: MIC means the lowest concentration that inhibits growth of the organism. On to `COc1ccc2nc(Nc3nc(O)c4cccc(OC)c4n3)nc(C)c2c1` [Example 10, 8-Methoxy-2-(6-methoxy-4-methyl-quinazolin-2-ylamino)-quinazolin-4-ol], for which the MIC was in the range of 0.06 to 16 µg/mL (≈ 0.165 to 44 µM).

As to `COc1cc(OC)c2nc(Nc3nc(O)c4cccc(OC)c4n3)nc(C)c2c1` [Example 11, 2-(6,8-Dimethoxy-4-methyl-quinazolin-2-ylamino)-8-methoxy-quinazolin-4-ol], the MIC lay within 0.06 to 16 µg/mL (≈ 0.153 to 40.7 µM).

Take `CCOc1cccc2nc(Nc3nc(C)c4cc(OC)c(OC)cc4n3)nc(O)c12` [Example 13, 2-(6,7-Dimethoxy-4-methyl-quinazolin-2-ylamino)-5-ethoxy-quinazolin-4-ol]: the MIC fell in the range of 0.06 to 16 µg/mL (≈ 0.147 to 39.3 µM).

`Cc1nc(Nc2nc(O)c3ccccc3n2)nc2cc3c(cc12)OCO3` [Example 15, 2-(8-Methyl-[1,3]dioxolo[4,5-g]quinazolin-6-ylamino)-quinazolin-4-ol] came in with a minimal inhibitory concentration (MIC) of 0.06 to 16 µg/mL (≈ 0.173 to 46.1 µM).

Compound `Cc1nc(Nc2nc(O)c3ccccc3n2)nc2ccc(O)cc12` [Example 16, 2-(4-Hydroxy-quinazolin-2-ylamino)-4-methyl-quinazolin-6-ol] returned a minimum inhibitory concentration (MIC) of 0.06 to 16 µg/mL (≈ 0.188 to 50.1 µM).

The compound `COc1ccc2nc(Nc3nc(O)c4cccc(C)c4n3)ncc2c1` [Example 20, 2-(6-Methoxy-quinazolin-2-ylamino)-8-methyl-quinazolin-4-ol] gave an MIC of 0.06 to 16 µg/mL (≈ 0.18 to 48 µM).

In the case of `COc1ccc2nc(Nc3nc(O)c4cc(N)cc(C)c4n3)nc(C)c2c1.O=C(O)C(F)(F)F` [Example 22, 6-Amino-2-(6-methoxy-4-methyl-quinazolin-2-ylamino)-8-methyl-quinazolin-4-ol trifluoroacetate salt], the MIC under setting [1] lay within 0.06 to 16 µg/mL.

With `COc1ccc([N+](=O)[O-])c2c(C)nc(Nc3nc(O)c4ccccc4n3)nc12.O=C(O)C(F)(F)F` [Example 26, 2-(8-Methoxy-4-methyl-5-nitro-quinazolin-2-ylamino)-quinazolin-4-ol trifluoroacetate salt], under setting [1], the minimum inhibitory concentration (MIC) fell in the range of 0.06 to 16 µg/mL.

As to `COc1ccc(OC)c2c(C)nc(Nc3nc(O)c4ccccc4n3)nc12.O=C(O)C(F)(F)F` [Example 27, 2-(5,8-Dimethoxy-4-methyl-quinazolin-2-ylamino)-quinazolin-4-ol trifluoroacetate salt], the MIC under setting [1] was 0.06 to 16 µg/mL.

As for `COc1ccc([N+](=O)[O-])c2c(C)nc(Nc3nc(O)c4cc(C)cc(C)c4n3)nc12.O=C(O)C(F)(F)F` [Example 30, 2-(8-Methoxy-4-methyl-5-nitro-quinazolin-2-ylamino)-6,8-dimethyl-quinazolin-4-ol, trifluoroacetate salt], the minimum inhibitory concentration (MIC) under setting [1] fell in the range of 0.06 to 16 µg/mL.

For the compound `COc1cc2c(C)nc(Nc3nc(O)c4ccccc4n3)nc2cc1F.O=C(O)C(F)(F)F` [Example 32, 2-(7-Fluoro-6-methoxy-4-methyl-quinazolin-2-ylamino)-quinazolin-4-ol trifluoroacetate salt], the MIC under setting [1] fell in the range of 0.06 to 16 µg/mL.

With `CSc1ccc2nc(Nc3nc(O)c4ccccc4n3)nc(C)c2c1.O=C(O)C(F)(F)F` [Example 35, 2-(4-Methyl-6-methylsulfanyl-quinazolin-2-ylamino)-quinazolin-4-ol trifluoroacetate salt], the MIC under setting [1] fell in the range of 0.06 to 16 µg/mL.

For the compound `COc1ccc2nc(Nc3nc(O)c4c(OC)cccc4n3)nc(C)c2c1.O=C(O)C(F)(F)F` [Example 37, 5-Methoxy-2-(6-methoxy-4-methyl-quinazolin-2-ylamino)-quinazolin-4-ol trifluoroacetate salt], under setting [1], the MIC fell in the range of 0.06 to 16 µg/mL.

In the case of `COc1cc2nc(Nc3nc(O)c4cc(C)cc(C)c4n3)nc(C)c2cc1OC.O=C(O)C(F)(F)F` [Example 41, 2-(6,7-Dimethoxy-4-methyl-quinazolin-2-ylamino)-6,8-dimethyl-quinazolin-4-ol trifluoroacetate salt], under setting [1], the MIC fell in the range of 0.06 to 16 µg/mL.

Take `COc1ccc(OC)c2c(C)nc(Nc3nc(O)c4cc(C)cc(C)c4n3)nc12.O=C(O)C(F)(F)F` [Example 43, 2-(5,8-Dimethoxy-4-methyl-quinazolin-2-ylamino)-6,8-dimethyl-quinazolin-4-ol trifluoroacetate salt]: the MIC under setting [1] lay in the range of 0.06 to 16 µg/mL.

For `CC(=O)O.COc1cc2c(C)nc(Nc3nc(O)c4cc(C)cc(C)c4n3)nc2cc1F` [Example 44, 2-(7-Fluoro-6-methoxy-4-methyl-quinazolin-2-ylamino)-6,8-dimethyl-quinazolin-4-ol acetate salt], under setting [1], the minimum inhibitory concentration (MIC) was in the range of 0.06 to 16 µg/mL.

With `COc1ccc2nc(Nc3nc(O)c4ccccc4n3)nc(CF)c2c1.O=C(O)C(F)(F)F` [Example 45, 2-(4-Fluoromethyl-6-methoxy-quinazolin-2-ylamino)-quinazolin-4-ol trifluoroacetate salt], under setting [1], the minimal inhibitory concentration (MIC) is 0.06 to 16 µg/mL.

With `COc1cc(OC)c2nc(Nc3nc(O)c4cccc(C)c4n3)nc(C)c2c1.O=C(O)C(F)(F)F` [Example 46, 2-(6,8-Dimethoxy-4-methyl-quinazolin-2-ylamino)-8-methyl-quinazolin-4-ol trifluoroacetate salt], under setting [1], the minimum inhibitory concentration (MIC) was 0.06 to 16 µg/mL.

Take `COc1ccc2nc(Nc3nc(O)c4cc(N)ccc4n3)nc(C)c2c1.O=C(O)C(F)(F)F` [Example 47, 6-Amino-2-(6-methoxy-4-methyl-quinazolin-2-ylamino)-quinazolin-4-ol trifluoroacetate salt]: the minimal inhibitory concentration (MIC) under setting [1] lay within 0.06 to 16 µg/mL.

The compound `COc1cccc2c(C)nc(Nc3nc(O)c4cc(C)cc(C)c4n3)nc12` [Example 48, 2-(8-Methoxy-4-methyl-quinazolin-2-ylamino)-6,8-dimethyl-quinazolin-4-ol] registered a minimal inhibitory concentration (MIC) of 0.06 to 16 µg/mL (≈ 0.166 to 44.3 µM).

`CCc1nc(Nc2nc(O)c3ccccc3n2)nc2ccc(OC)cc12` [Example 49, 2-(4-Ethyl-6-methoxy-quinazolin-2-ylamino)-quinazolin-4-ol]: the MIC lay within 0.06 to 16 µg/mL (≈ 0.173 to 46.1 µM).

`COc1cccc2c(C)nc(Nc3nc(O)c4cccc(C)c4n3)nc12` [Example 51, 2-(8-Methoxy-4-methyl-quinazolin-2-ylamino)-8-methyl-quinazolin-4-ol]: the minimal inhibitory concentration (MIC) lay in the range of 0.06 to 16 µg/mL (≈ 0.173 to 46.1 µM).

In the case of `COc1cc2nc(Nc3nc(O)c4ccccc4n3)nc(C)c2cc1OC` [Example 52, 2-(6,7-Dimethoxy-4-methyl-quinazolin-2-ylamino)-quinazolin-4-ol], the minimal inhibitory concentration (MIC) lay within 0.06 to 16 µg/mL (≈ 0.165 to 44 µM).

The compound `COc1cccc2c(C)nc(Nc3nc(O)c4ccccc4n3)nc12` [Example 58, 2-(8-Methoxy-4-methyl-quinazolin-2-ylamino)-quinazolin-4-ol] displayed a minimum inhibitory concentration (MIC) of 0.06 to 16 µg/mL (≈ 0.18 to 48 µM).

`CCOc1cccc2c(C)nc(Nc3nc(O)c4ccccc4n3)nc12` [Example 59, 2-(8-Ethoxy-4-methyl-quinazolin-2-ylamino)-quinazolin-4-ol]: the MIC lay in the range of 0.06 to 16 µg/mL (≈ 0.173 to 46.1 µM).

In the case of `COc1ccc2nc(Nc3nc(O)c4cc(O)ccc4n3)nc(C)c2c1` [Example 60, 2-(6-Methoxy-4-methyl-quinazolin-2-ylamino)-quinazoline-4,6-diol], the minimal inhibitory concentration (MIC) was in the range of 0.06 to 16 µg/mL (≈ 0.172 to 45.8 µM).

`COc1ccc2nc(Nc3nc(O)c4cc(OC)ccc4n3)nc(C)c2c1` [Example 61, 6-Methoxy-2-(6-methoxy-4-methyl-quinazolin-2-ylamino)-quinazolin-4-ol] returned an MIC of 0.06 to 16 µg/mL (≈ 0.165 to 44 µM).

Consider `COc1ccc2nc(Nc3nc(O)c4cc(OC)c(OC)cc4n3)nc(C)c2c1` [Example 62, 6,7-Dimethoxy-2-(6-methoxy-4-methyl-quinazolin-2-ylamino)-quinazolin-4-ol], for which the minimum inhibitory concentration (MIC) was in the range of 0.06 to 16 µg/mL (≈ 0.153 to 40.7 µM).

With `COc1ccc2nc(Nc3nc(O)c4cc(C)ccc4n3)nc(C)c2c1` [Example 63, 2-(6-Methoxy-4-methyl-quinazolin-2-ylamino)-6-methyl-quinazolin-4-ol], the MIC was 0.06 to 16 µg/mL (≈ 0.173 to 46.1 µM).

Compound `COc1ccc2nc(Nc3nc(O)c4cccc(C)c4n3)nc(C)c2c1` [Example 65, 2-(6-Methoxy-4-methyl-quinazolin-2-ylamino)-8-methyl-quinazolin-4-ol] came in with a minimal inhibitory concentration (MIC) of 0.06 to 16 µg/mL (≈ 0.173 to 46.1 µM).

Turning to `COc1cc(OC)c2nc(Nc3nc(O)c4cc([N+](=O)[O-])cc(C)c4n3)nc(C)c2c1.O=C(O)C(F)(F)F` [Example 67, 2-(6,8-Dimethoxy-4-methyl-quinazolin-2-ylamino)-8-methyl-6-nitro-quinazolin-4-ol trifluoroacetate salt], the MIC under setting [1] fell in the range of 0.06 to 16 µg/mL.

Regarding `COc1cccc2c(C)nc(Nc3nc(O)c4cc([N+](=O)[O-])cc(C)c4n3)nc12.O=C(O)C(F)(F)F` [Example 68, 2-(8-Methoxy-4-methyl-quinazolin-2-ylamino)-8-methyl-6-nitro-quinazolin-4-ol trifluoroacetate salt], the MIC under setting [1] is 0.06 to 16 µg/mL.

For the compound `COCCOc1ccc2nc(Nc3nc(O)c4cc([N+](=O)[O-])cc(C)c4n3)nc(C)c2c1.O=C(O)C(F)(F)F` [Example 69, 2-[6-(2-Methoxy-ethoxy)-4-methyl-quinazolin-2-ylamino]-8-methyl-6-nitro-quinazolin-4-ol trifluoroacetate salt], the minimal inhibitory concentration (MIC) under setting [1] was in the range of 0.06 to 16 µg/mL.

Regarding `COCCOc1ccc2nc(Nc3nc(O)c4cc(N)cc(C)c4n3)nc(C)c2c1.O=C(O)C(F)(F)F` [Example 70, 6-Amino-2-[6-(2-methoxy-ethoxy)-4-methyl-quinazolin-2-ylamino]-8-methyl-quinazolin-4-ol trifluoroacetate salt], under setting [1], the MIC lay within 0.06 to 16 µg/mL.

In the case of `COc1ccc2nc(Nc3nc(O)c4cccc(O)c4n3)nc(C)c2c1.O=C(O)C(F)(F)F` [Example 71, 2-(6-Methoxy-4-methyl-quinazolin-2-ylamino)-quinazoline-4,8-diol trifluoroacetate salt], under setting [1], the minimum inhibitory concentration (MIC) lay within 0.06 to 16 µg/mL.

`COc1cccc2c(C)nc(Nc3nc(O)c4cccc(O)c4n3)nc12.O=C(O)C(F)(F)F` [Example 72, 2-(8-Methoxy-4-methyl-quinazolin-2-ylamino)-quinazoline-4,8-diol trifluoroacetate salt]: the MIC under setting [1] lay in the range of 0.06 to 16 µg/mL.

For the compound `COc1ccc2c(C)nc(Nc3nc(O)c4cc(C)cc(C)c4n3)nc2c1OC.O=C(O)C(F)(F)F` [Example 73, 2-(7,8-Dimethoxy-4-methyl-quinazolin-2-ylamino)-6,8-dimethyl-quinazolin-4-ol trifluoroacetate salt], the MIC under setting [1] lay within 0.06 to 16 µg/mL.
